Where two headings read alike, the source gives them in different places.
Columns and labels:
[1] = Acute/immediate toxicity following i.v. injection in BALB/c mice; conditions: for Mice died: 20 mg/kg i.v.; for MTD / Maximum dose tolerated: mouse, in vivo, iv
Procedure: Acute toxicity studies were performed in BALB/c female mice with doses tested at 20, 50 and 200 mg/kg (i.v., n=5 mice per dose).

[2] = tested on: MCF7 cells; assay: MCF7 breast tumor cell growth inhibition, 72 h, MTT tetrazolium dye assay; type: cell-based, human; conditions: for Tumor cell inhibition (in words) / Potency against MCF7 compared with tamoxifen: 72 h; for RP (relative potency): tamoxifen = 100
Procedure: The MCF7 cell line is a human tumor cell line. This cell line was cultured in MEM (Eagles) media in a 5% CO^2 atmosphere with 10% fetal calf serum that had been washed twice with dextran coated charcoal to reduce endogenous estrogen levels. The media was supplemented with 1 mM sodium pyruvate and 100 μm non-essential amino acids. The cell line was screened routinely for myoplasma contamination using the GenProbe kit (Fisher). Cells were trypsinized and plated at a density of 5,000 cells/well in 96 well microtiter plates and allowed to attach and recover for 24 hours.
The media was removed by aspiration and replaced with filter sterilized drug (concentration from 10^-4 M to 10^-5 M) in media. The cells were incubated for 72 hours and then stained using the mTT tetrazolium dye assay of Mosmann^36 except that after the media was removed, the blue formazan product was solubilized in 50 μl/well DMSO.

[3] = biological target: T1, estrogen receptor (Sus scrofa, UniProt Q29040); conditions: for Enhancement of estrogen receptor binding affinity: compared to tamoxifen; for RBA (relative binding affinity): tamoxifen = 100; for RBA (IC50 ratio between tamoxifen and competitor): Table 7, tamoxifen printed as 1
T1 sequence (Q29040 1-595): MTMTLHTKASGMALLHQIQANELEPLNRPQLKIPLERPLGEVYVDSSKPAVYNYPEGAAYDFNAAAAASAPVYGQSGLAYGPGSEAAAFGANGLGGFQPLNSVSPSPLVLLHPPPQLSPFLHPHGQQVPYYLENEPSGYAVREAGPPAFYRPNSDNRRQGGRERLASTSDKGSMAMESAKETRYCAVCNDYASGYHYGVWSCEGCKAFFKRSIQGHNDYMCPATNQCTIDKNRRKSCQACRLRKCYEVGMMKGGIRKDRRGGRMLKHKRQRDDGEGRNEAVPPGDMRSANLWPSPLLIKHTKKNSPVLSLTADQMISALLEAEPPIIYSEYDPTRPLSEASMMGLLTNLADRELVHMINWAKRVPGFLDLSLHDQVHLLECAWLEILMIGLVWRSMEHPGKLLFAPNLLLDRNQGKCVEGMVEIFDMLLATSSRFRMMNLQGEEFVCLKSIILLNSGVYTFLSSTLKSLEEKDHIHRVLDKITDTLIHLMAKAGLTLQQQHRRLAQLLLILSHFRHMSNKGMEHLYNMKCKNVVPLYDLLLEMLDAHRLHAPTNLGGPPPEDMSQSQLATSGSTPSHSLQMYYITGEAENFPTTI
Procedure: A previously reported procedure was modified by the inventors and used for this purpose.^10,11 TEA buffer was used by the Inventors for tissue preparation.
Briefly, uteri (90 gm) were obtained from immature domestic swine (15 kg) was homogenized in Tris buffer (10 mM, pH 7.4) (1 uterus/180 ml), which contained EDTA (1.5 mM) and sodium Azide (3 mM). The homogenate was centrifuged at 100,000 g for 1 hour at 4° C. Uteri cytosol (contains 2% of protein from corresponding uterus tissue) were then pretreated with dextran-coated charcoal as described.^10 Protein concentrations were determined according to the method of Lowry et al.^12
*The relative binding affinity (RBA) for the pig uteri estrogen receptor

[4] = biological target: T2, estrogen receptor (Homo sapiens, UniProt P03372); conditions: cited from earlier work; for Estrogen receptor binding / detection potency (in words): compared to tamoxifen
T2 sequence (P03372 1-595): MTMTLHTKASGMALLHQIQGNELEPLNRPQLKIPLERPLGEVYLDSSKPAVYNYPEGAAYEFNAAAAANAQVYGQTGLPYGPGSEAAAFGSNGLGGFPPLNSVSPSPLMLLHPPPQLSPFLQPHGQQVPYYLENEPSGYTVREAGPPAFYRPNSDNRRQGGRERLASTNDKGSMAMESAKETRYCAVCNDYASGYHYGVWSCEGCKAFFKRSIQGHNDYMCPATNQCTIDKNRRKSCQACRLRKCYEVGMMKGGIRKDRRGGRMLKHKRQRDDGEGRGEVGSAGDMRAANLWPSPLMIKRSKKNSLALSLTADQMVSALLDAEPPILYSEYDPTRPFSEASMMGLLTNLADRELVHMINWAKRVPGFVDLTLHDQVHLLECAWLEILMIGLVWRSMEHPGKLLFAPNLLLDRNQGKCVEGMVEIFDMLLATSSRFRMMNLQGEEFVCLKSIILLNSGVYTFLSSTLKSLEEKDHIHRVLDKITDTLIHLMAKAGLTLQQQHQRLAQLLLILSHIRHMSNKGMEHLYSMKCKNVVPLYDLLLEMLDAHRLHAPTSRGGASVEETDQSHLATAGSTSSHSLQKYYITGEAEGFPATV

[5] = compared to tamoxifen; cited from earlier work
[6] = in vivo; set-up: species or system rat; conditions: compared with DTPA-Tamoxifen and DTPA-Vitamin A conjugates
Procedure: In animal tissue distribution studies, each rate was given 8.9 μCi (0.15 ml) tracer intravenously. The tumor-bearing rats were killed at 1, 3, 6 and 24 h. […] The amount of DES given should occupy tumor estrogen receptor sites. The methods for inducing tumors in rats was as described by those of skill in the art (radiology). […]
Female Fisher 344 rats (250-275 g) (Harlan, Inc., Indianapolis, Ind.) were inoculated with mammary tumor cells using the 13762 tumor cell line (s.c. 10^5 cells/rat). After 14 days, a tumor size of 1-2 cm was observed. For ^131 I-ITX studies, five groups of rats (N=3/group) were anesthetized with ketamine (10-15 mg/rat). The trans ^131 I-ITX was given to four of the five groups (8.9 μCi/rat, i.v.) and biodistribution was studied at 1, 3, 6 and 24 h intervals. In blocking studies, the fifth group of rats was given diethylstilbestrol (DES) (1.2 mg/rat) for 1 h, followed by 8.9 μCi of ^131 I-ITX; biodistribution was studied 6 h later. The tissues were collected at different time intervals. The tissues were weighted and counted for radioactivity. The percent of injected dose per gram of tissue weight was calculated. […]

## CCN(CC)CCOc1ccc(/C(=C(/CCCI)c2ccccc2)c2ccccc2)cc1 [trans-ITX, iodotamoxifen]
[1]
  Mice died: 3/4
  MTD: 8 mg/kg
[1]; listed as trans ITX
  Mice died: 3 out of 4
[1]; i.v.
  Toxicity (in words): lethal effects of transITX were immediate

## CCN(CC)CCOc1ccc(/C(=C(/CCCBr)c2ccccc2)c2ccccc2)cc1 [trans-BTX]
[1]
  MTD: 50 mg/kg

## CCN(CC)CCOc1ccc(C(=C(CCCF)c2ccccc2)c2ccccc2)cc1 [Compound VI, N,N-diethyl-fluoromethyltamoxifen]
[2]
  Tumor cell inhibition (in words): effective as inhibiting a breast tumor cell line

## CCN(CC)CCOc1ccc(/C(=C(/CCF)c2ccccc2)c2ccccc2)cc1 [IV (trans), N,N-diethyl-fluorotamoxifen]
[3]
  Enhancement of estrogen receptor binding affinity: two and a half times

## CC/C(=C(/c1ccccc1)c1ccc(OCCN2CC2)cc1)c1ccccc1 (single isomer, unassigned) [cis isomer of tamoxifen azizidine]
[4]; versus trans isomer or native tamoxifen
  Decrease in estrogen receptor binding affinity: 50 fold

## CCN(CC)CCOc1ccc(C(=C(CCCI)c2ccccc2)c2ccccc2)cc1 [Compound X, N,N-diethyl-iodomethyltamoxifen]
[2]
  Tumor cell inhibition (in words): effective as inhibiting a breast tumor cell line

## CCN(CC)CCOc1ccc(/C(=C(\CCCI)c2ccccc2)c2ccccc2)cc1 [cis-ITX, iodotamoxifen]
[1]
  MTD: 50 mg/kg

## fluorotamoxifen [cis-^18 F-FTX]
[1]
  Maximum dose tolerated: 50 mg/kg

## CC/C(=C(\c1ccc(OC)cc1)c1ccc(OCCN(C)C)cc1)c1ccccc1 [4-methoxy phenyl derivative]
[5]
  Anti-estrogenic / in vivo activity (in words): about the same as native tamoxifen

## CCN(CC)CCOc1ccc(C(=C(CCCBr)c2ccccc2)c2ccccc2)cc1 [Compound XI, 1-[4-(2-Diethylaminoethoxy)phenyl]-1,2-diphenyl-5-bromo-1-entene]
[2]
  Potency against MCF7 compared with tamoxifen: ~25 fold
[3]; listed as Bromomethyl tamoxifen
  Estrogen receptor binding (in words): binds to estrogen receptors with greater affinity than the other halogenated tamoxifen analogs tested
[3]; listed as bromomethyl-Tx
  Estrogen receptor binding (in words): bind to estrogen receptors greater than other halogenated tamoxifens tested

## NCCc1ccc(NC(=O)CN(CCN(CCN(CC(=O)O)CC(=O)O)CC(=O)O)CC(=O)O)cc1 [DTPA, DTPAp-(amino ethyl) anilide, reference compound]
[6]
  Blood clearance and tumor-to-tissue uptake ratios (in words): faster blood clearance and less tumor-to-tissue uptake ratios

## CC/C(=C(\c1ccc(F)cc1)c1ccc(OCCN(C)C)cc1)c1ccccc1 [Compound 4-fluoro]
[4]
  Estrogen receptor binding / detection potency (in words): approximately equal activity for estrogen receptor binding affinity
[5]
  Anti-estrogenic / in vivo activity (in words): lower anti-estrogenic activity than tamoxifen

## CCN(CC)CCOc1ccc(/C(=C(\CCCBr)c2ccccc2)c2ccccc2)cc1 [cis-BTX]
[1]
  MTD: 50 mg/kg

## fluorotamoxifen [trans^18 F-FTX]
[1]
  Maximum dose tolerated: 200 mg/kg

## CC/C(=C(\c1ccc(O)cc1)c1ccc(OCCN(C)C)cc1)c1ccccc1 [4-hydroxytamoxifen]
[5]
  Anti-estrogenic / in vivo activity (in words): less effective than tamoxifen in vivo

## CCN(CC)CCOc1ccc(/C(=C(/CCCO)c2ccccc2)c2ccccc2)cc1 [III (trans), N,N-diethyl-hydroxymethyltamoxifen]
[2]
  RP (relative potency): 50
[3]
  RBA (relative binding affinity): 400

## CC/C(=C(\c1ccc(I)cc1)c1ccc(OCCN(C)C)cc1)c1ccccc1 [Compound 4-iodo]
[4]
  Estrogen receptor binding / detection potency (in words): greater potency than tamoxifen

## CCN(CC)CCOc1ccc(/C(=C(/CCCBr)c2ccccc2)c2ccccc2)cc1 [(XI) BrM (trans), N,N-diethyl-bromomethyltamoxifen]
[3]
  RBA (IC50 ratio between tamoxifen and competitor): 150
  Enhancement of estrogen receptor binding affinity: 50 fold

## CCN(CC)CCOc1ccc(/C(=C(/CCCCl)c2ccccc2)c2ccccc2)cc1 [(XII) ClM (trans), N,N-diethyl-chloromethyltamoxifen]
[3]; read-out: IC50 estrogen receptor binding, pig uterus, [3H]estradiol 5 nM
  IC50: 400 nM

## CC/C(=C(\c1ccc(C)cc1)c1ccc(OCCN(C)C)cc1)c1ccccc1 [Compound 4-methyl]
[4]
  Estrogen receptor binding / detection potency (in words): approximately equal activity for estrogen receptor binding affinity
[5]
  Anti-estrogenic / in vivo activity (in words): lower anti-estrogenic activity than tamoxifen

## CCN(CC)CCOc1ccc(/C(=C(\CCCCl)c2ccccc2)c2ccccc2)cc1 [cis-CITX, chlorotamoxifen]
[1]
  MTD: 50 mg/kg

## CC/C(=C(\c1ccc(Cl)cc1)c1ccc(OCCN(C)C)cc1)c1ccccc1 [Compound 4-chloro]
[4]
  Estrogen receptor binding / detection potency (in words): approximately equal activity for estrogen receptor binding affinity
[5]
  Anti-estrogenic / in vivo activity (in words): lower anti-estrogenic activity than tamoxifen

## CCN(CC)CCOc1ccc(/C(=C(\CCCI)c2ccccc2)c2ccccc2)cc1 [X (cis), N,N-diethyl-iodomethyltamoxifen]
[2]
  Tumor cell inhibition (in words): more potent than the trans isomers
[3]
  RBA (IC50 ratio between tamoxifen and competitor): 10
  Enhancement of estrogen receptor binding affinity: 10 fold
  RBA (relative binding affinity): 1,000

## CCN(CC)CCOc1ccc(/C(=C(\CCCF)c2ccccc2)c2ccccc2)cc1 [VI (Cis), N,N-diethyl-fluoromethyltamoxifen]
[2]
  Potency against MCF7 compared with tamoxifen: 3 fold
  Tumor cell inhibition (in words): more potent than the trans isomers

## CCN(CC)CCOc1ccc(/C(=C(\CCF)c2ccccc2)c2ccccc2)cc1 (single isomer, unassigned) [IV (Cis), N,N-diethyl-fluorotamoxifen]
[2]
  Tumor cell inhibition (in words): effective as inhibiting a breast tumor cell line
[2]; listed as cis N,N-diethyl-fluoro
  Tumor cell inhibition (in words): more potent than the trans isomers
[3]
  RBA (relative binding affinity): 100

## Fluorotamoxifen [(VII) FTX (Cis)]
[2]
  RP (relative potency): 224
